The record followed here is patent US20210043958A1, “AQUEOUS COMPOSITION AS ELECTROLYTE COMPRISING IONIC LIQUIDS OR LITHIUM SALTS” (KIST EUROPE FORSCHUNGSGESELLSCHAFT MBH, priority 2018, published 2021).

Molecules are shown by their SMILES. ≈ marks a conversion by molar mass, not a printed value.

Series [1] can be described thus: Solubility of organic compounds in supporting electrolyte at room temperature. The conditions noted are these: for solubility: thermodynamic from solid. Type of series: physicochemical. The source says: The last recorded amount was recognized as the solubility of the organics.
The nature of series [2]: Cyclic voltammetry in three-electrode cell (glassy carbon / Pt foil / Ag wire). Type of series: physicochemical. The source says: FIGS. 2a and 2b compare cyclic voltammetry curves of 0.1 M 2-methoxyhydroquinone in pure water and other aqueous ionic liquid, aqueous lithium salt (molality: 10 m), with and without the addition of 1 M HCl. Potential sweep rate: 50 mV s^−1. Working electrode: glassy carbon; Counter electrode: Pt foil; Reference electrode: Ag wire.
FIG. 5a depicts the chemical structure of 2-[(2,5-dihydroxyphenyl)sulfanyl]ethan-1-aminium chloride. FIGS. 5b and 5c show the cyclic voltammetry curves of 0.1 M 2-[(2,5-dihydroxyphenyl) sulfanyl]ethan-1-amonium chloride in pure water and in 1 M HCl. Potential sweep rate: 20 mV s^−1. Working electrode: glassy carbon; Counter electrode: Pt foil; Reference electrode: Ag wire.
FIGS. 6a and 6b compare the cyclic voltammetry curves of 0.1 M 2-[(2,5-dihydroxyphenyl) sulfanyl]ethan-1-amonium chloride in concentrated LiTFSI and BMImCl without and with the addition of 1 M HCl. Potential sweep rate: 20 mV s^−1. Working electrode: glassy carbon; Counter electrode: Pt foil; Reference electrode: Ag wire.
CV measurements were performed in a three-electrode cell consisting of a glassy carbon rod working electrode, a platinum foil counter electrode and a silver wire quasi-reference electrode. CV measurements of 2-methoxyhydroquinone in water (FIG. 2a) and different aqueous ionic liquids and salt (FIG. 2b) were performed.
For the CV measurement in water, KCl was added as supporting salt. […] The average redox potential in water is 0.27 V vs. Ag but with large peak separation of 0.64 V (FIG. 2a).

Where [3] appears, read: 10 m BMImCl-H2O, aqueous with cosolvent or surfactant or cyclodextrin, BMImCl—H2O (10 m / concentrated), neutral, no additive.
[4] abbreviates: 0.1 M in BMImCl—H2O, 20 mV s^−1.
Setting [5] is: 0.1 M in LiTFSI—H2O, 20 mV s^−1.
[6] abbreviates: 10 m BMImCl-H2O, aqueous with cosolvent or surfactant or cyclodextrin, 10 m BMImCl-H2O, a: without additive.
Where [7] appears, read: 10 m LiTFSI-H2O, aqueous with cosolvent or surfactant or cyclodextrin, 10 m LiTFSI-H2O, a: without additive.
The mark [8] stands for this setting: 10 m LiTFSI-H2O, aqueous with cosolvent or surfactant or cyclodextrin, LiTFSI—H2O (10 m), neutral, no additive.
[9] abbreviates: 10 m TBACl-H2O, aqueous with cosolvent or surfactant or cyclodextrin, 10 m TBACl-H2O, a: without additive.
Where [10] appears, read: water, H2O, a: without additive.
Where [11] appears, read: 0.1 M in 10 m BMImCl—H2O, 50 mV s^−1.
The mark [12] stands for this setting: 0.1 M in 10 m LiTFSI—H2O, 50 mV s^−1.
Setting [13] is: 0.1 M in 10 m TBACl—H2O, 50 mV s^−1.
[14] abbreviates: 0.1 M in water, KCl supporting salt, 50 mV s^−1.
[15] abbreviates: BMImCl—H2O, acidic conditions (1 M HCl).
Setting [16] is: LiTFSI—H2O, acidic conditions (1 M HCl).
Where [17] appears, read: TBACl—H2O, acidic conditions (1 M HCl).
Where [18] appears, read: water, acidic conditions (1 M HCl).

On to `Cl.NCCSc1cc(O)ccc1O` [2-[(2,5-dihydroxyphenyl)sulfanyl]ethan-1-aminium chloride], for which the solubility in series [1] (setting [3]) turned out to be 1200 mM; in series [1] (acidic BMImCl-H2O, aqueous with cosolvent or surfactant or cyclodextrin, acidic BMImCl—H2O), 900 mM; in series [1] (pure water), 2000 mM. In addition, the “average oxidation and reduction potential” value was 0.61 V in series [2] (0.1 M in BMImCl—H2O with addition of HCl (1 M), 20 mV s^−1) and 0.50 V vs. Ag in series [2] (setting [4]). The molecule also came in with a peak separation in series [2] (setting [4]) of 0.61 V. Moreover, the “reduction of peak separation on addition of HCl” value in series [2] (0.1 M in BMImCl—H2O, with vs. without HCl (1 M)) turned out to be 0.07 V. In series [2] (setting [5]), this molecule had an oxidation peak of 0.70 V vs. Ag. In series [2] (setting [5]), the reduction peak is 0.08 V vs. Ag. In series [2] (0.1 M in pure water and in 1 M HCl, 20 mV s^−1), the redox reversibility result is “poor redox reversibility”. In addition, the stability and reversibility entry in series [2] (in aqueous ionic liquids or lithium salt) was “excellent stability and reversibility”. Also, the “chemical and electrochemical stability” value in series [2] (in water) was “chemically and electrochemically instable”.

As for `COc1cc(C=O)ccc1O` [vanillin, Vanillin], the solubility was 4000 mM (≈ 609 mg/mL) in series [1] (setting [6]); 4000 mM (≈ 609 mg/mL) in series [1] (setting [3]); 4000 mM (≈ 609 mg/mL) in series [1] (setting [7]); 4000 mM (≈ 609 mg/mL) in series [1] (setting [8]); 4000 mM (≈ 609 mg/mL) in series [1] (setting [9]); 4000 mM (≈ 609 mg/mL) in series [1] (TBACl-H2O, aqueous with cosolvent or surfactant or cyclodextrin, TBACl—H2O). Besides, in series [1] (setting [10]), the solubility was under 100 mM. Also, the “Solubility (in words)” value in series [1] (water) is reported as “slightly soluble”.

On to `COc1cc(O)cc(OC)c1O` [2,6-dimethoxyhydroquinone], for which the solubility in series [1] (10 m BMImCl-H2O with 1 M HCl, aqueous with cosolvent or surfactant or cyclodextrin, 10 m BMImCl-H2O, b: with 1 M HCl) was under 100 mM; in series [1] (setting [6]) it was under 100 mM; in series [1] (10 m LiTFSI-H2O with 1 M HCl, aqueous with cosolvent or surfactant or cyclodextrin, 10 m LiTFSI-H2O, b: with 1 M HCl), 500 mM (≈ 85.1 mg/mL); in series [1] (setting [7]) it was 700 mM (≈ 119 mg/mL); in series [1] (setting [8]) it was 700 mM (≈ 119 mg/mL); in series [1] (10 m TBACl-H2O with 1 M HCl, aqueous with cosolvent or surfactant or cyclodextrin, 10 m TBACl-H2O, b: with 1 M HCl), 100 mM (≈ 17 mg/mL). Further, the solubility in series [1] (setting [9]) is 200 mM (≈ 34 mg/mL); in series [1] (acidic LiTFSI-H2O, aqueous with cosolvent or surfactant or cyclodextrin, acidic LiTFSI—H2O), 500 mM (≈ 85.1 mg/mL); in series [1] (water with 1 M HCl, aqueous buffer, H2O, b: with 1 M HCl) it was under 100 mM; in series [1] (setting [10]), under 100 mM. Also, the “Solubility (in words)” value is reported as “limited” in series [1] (BMImCl—H2O), “limited” in series [1] (TBACl—H2O) and “insoluble” in series [1] (water).

On to `COc1cc(O)ccc1O` [2-methoxyhydroquinone], for which the solubility in series [1] (setting [3]) turned out to be 6000 mM (≈ 841 mg/mL); in series [1] (setting [8]), 4200 mM (≈ 589 mg/mL); in series [1] (pure water, water), 1800 mM (≈ 252 mg/mL). In addition, the average redox potential in series [2] (setting [11]) was 0.51 V vs. Ag; in series [2] (setting [12]) it was 0.38 V vs. Ag; in series [2] (setting [13]), 0.54 V vs. Ag; in series [2] (setting [14]) it was 0.27 V vs. Ag; in series [2] (10 m BMImCl—H2O with H3PO4 from 1 M to 3 M), 0.50 V vs. Ag. Further, the peak separation in series [2] (setting [11]) amounted to 0.53 V; in series [2] (setting [12]) it was 0.48 V; in series [2] (setting [14]), 0.64 V; in series [2] (10 m BMImCl—H2O with 1 M H3PO4) it was 0.42 V; in series [2] (setting [15]), 0.30 V; in series [2] (setting [16]), 0.38 V. In addition, the figures for the peak separation in series [2] (setting [17]) and in series [2] (setting [18]) were 0.54 V and 0.40 V, respectively. In addition, the “polarization (peak separation)” value in series [2] (setting [13]) stood at 0.87 V. The redox potential amounted to 0.58 V vs. Ag in series [2] (setting [15]), 0.55 V vs. Ag in series [2] (setting [16]), 0.58 V vs. Ag in series [2] (setting [17]) and 0.35 V vs. Ag in series [2] (setting [18]).

As for `CC[N+](CC)(CC)Cc1ccc2c(c1)C(=O)c1ccccc1C2=O.[Br-]` [2-methanaminium-N,N,N-triethyl-9,10-anthraquinone bromide], the “Solubility (in words)” value in series [1] (5 m LiTFSI—H2O) is recorded as “poor”; in series [1] (15 m LiTFSI—H2O), “soluble”. The solubility in series [1] (setting [6]) is under 100 mM; in series [1] (10 m LiTFSI with triethanolamine, aqueous with cosolvent or surfactant or cyclodextrin, 10 m LiTFSI with 0.3 g triethanolamine per milliliter), 300 mM; in series [1] (setting [7]), 500 mM; in series [1] (setting [8]), 500 mM; in series [1] (10 m TBACl-H2O with triethanolamine, aqueous with cosolvent or surfactant or cyclodextrin, 10 m TBACl-H2O, c: with 0.3 g triethanolamine per mL solvent), under 100 mM; in series [1] (setting [9]), under 100 mM. In addition, the solubility in series [1] (supporting electrolyte, aqueous with cosolvent or surfactant or cyclodextrin, 10 m BMImCl-H2O, c: with 0.3 g triethanolamine per mL solvent) was under 100 mM; in series [1] (supporting electrolyte, aqueous with cosolvent or surfactant or cyclodextrin, 10 m LiTFSI-H2O, c: with 0.3 g triethanolamine per mL solvent) it was 300 mM; in series [1] (supporting electrolyte, aqueous with cosolvent or surfactant or cyclodextrin, H2O, c: with 0.3 g triethanolamine per mL solvent), under 100 mM; in series [1] (setting [10]), under 100 mM.
